Here are results for nine compounds from patent US9611254B2, “Triazole compounds and their use as gamma secretase modulators” (Acturum Life Science AB, priority 2013, dated 2017).

In test [1] the test system is Aβ42. The experiment in a line: PCN assay: Aβ42 secreted by mouse primary cortical neuronal cells (ELISA). In kind it is cell-based. To be noted: primary cortical neuronal cells from 16-day mouse embryos, 16-20 hours incubation with compound, Aβ42 in cell medium; for IC50: Mus musculus, read-out: pIC50 Aβ42 PCN assay (converted). On the procedure: Compounds were diluted in 100% DMSO and stored at […] prior to use. Primary cortical neuronal cells (PCN) were isolated from 16-day mouse embryos and cultured in Ham's F12 media containing 10% Foetal bovine serum, 10 mM Hepes, 2 mM L-glutamine and 100 U/mL Penicillin-Streptomycin. 150000-250000 cells/well, in 200 μL cell media were seeded onto 96-well poly-D-Lysine coated plates. After incubation at 37° C., 5% CO2 for five days, the media was exchanged for fresh medium containing test compound diluted ×100, before further incubation for 16-20 hours at 37° C. and 5% CO2. After incubation with test compound the amount of Aβ42 peptides secreted to cell medium was analyzed using the solid phase sandwich Enzyme-Linked-Immuno-Sorbent Assay (ELISA)-kit from Invitrogen for detection of mouse βAmyloid 1-42. Potential cytotoxic effects of the compounds were assayed by measuring the ATP content (Via Light) from cell lysate.
(In general: ELISA stands for enzyme-linked immunosorbent assay.)

Test [2] has as its system Aβ42. Briefly: HEK assay: Aβ42 secreted by HEK cells stably expressing APPswe (Meso Scale electrochemiluminescence). The test is classed as cell-based, Human. Conditions: 4-6 hours incubation with compound, Aβ42 in cell medium; for IC50: Homo sapiens, HEK293, HEK cell line stably expressing APPswe, read-out: pIC50 Aβ42 HEK assay (converted). On the procedure:
Compounds were diluted in 100% DMSO and stored at […] prior to use. Human Embryonic Kidney (HEK) cell line stably expressing APP with the Swedish mutation (APPswe) was cultured using Dulbecco's Modified Eagles medium (DMEM) supplied with […] glucose, Na-pyruvate and GlutaMAX, 10% Foetal bovine serum, 100 U/mL penicillin-streptomycin (PEST), 1× non-essential amino acids (NEAA), […] Hepes, 100 μg/mL Zeocine. Cells at about 80% confluence were washed with PBS, detached from culture flasks using 1× Trypsin/EDTA diluted in PBS, re-suspended in cell media and plated in 384-well poly-d-lysine coated cell culture plates at about 10000-15000 cells/well, in 25 μL cell media. Optionally, cryo-preserved cells (frozen and stored at −140° C. in 90% cell media and 10% DMSO) were thawed, washed and plated as above. Next the cells were incubated for 15-24 h at 37° C. and 5% CO2, after which cell medium was changed. Fresh medium containing test compound diluted ×200 from prepared compound plate was added to the cells before further incubation for 4-6 hours at 37° C. and 5% CO2. After incubation with test compound the amount of Aβ peptides, including Aβ42, Aβ40, Aβ39, Aβ38 and Aβ37, secreted to cell medium was analyzed using the electrochemiluminescence assay technology from Meso Scale Discovery Technology, in combination with specific antibodies raised against the different Aβ peptides. Potential cytotoxic effects of the compounds were assayed by measuring the ATP content (ViaLight) from cell lysate.

Regarding `COc1cc(Nc2nc(N3CC(F)(c4ccccc4)C3)n(CC(C)(C)O)n2)ccc1-n1cnc(C)c1` [Example 2, 1-(5-(3-Fluoro-3-phenylazetidin-1-yl)-3-(3-methoxy-4-(4-methyl-1H-imidazol-1-yl)phenylamino)-1H-1,2,4-triazol-1-yl)-2-methylpropan-2-ol], the IC50 in test [1] is 31.6 nM; in test [2], 50.1 nM.

`COc1cc(Nc2nc(N3CC(c4ccccc4)C3)n(CC(C)(C)O)n2)ccc1-n1cnc(C)c1` [Example 1, 1-(3-(3-Methoxy-4-(4-methyl-1H-imidazol-1-yl)phenylamino)-5-(3-phenylazetidin-1-yl)-1H-1,2,4-triazol-1-yl)-2-methylpropan-2-ol]: the figures for the IC50 in test [1] and in test [2] were 15.8 nM and 39.8 nM, respectively.

Turning to `COc1cc(Nc2nc(N3CC4(CCC4)C3)n(CC(C)(C)O)n2)ccc1-n1cnc(C)c1` [Example 8, 1-(3-(3-Methoxy-4-(4-methyl-1H-imidazol-1-yl)phenylamino)-5-(2-azaspiro[3.3]heptan-2-yl)-1H-1,2,4-triazol-1-yl)-2-methylpropan-2-ol], the IC50 in test [1] was 63.1 nM; in test [2] it was 50.1 nM.

For the compound `COc1cc(Nc2nc(N3CCC3c3ccccc3)n(CC(C)(C)O)n2)ccc1-n1cnc(C)c1` (single isomer, unassigned; isomer 2) [Example 7, 1-(3-(3-Methoxy-4-(4-methyl-1H-imidazol-1-yl)phenylamino)-5-(2-phenylazetidin-1-yl)-1H-1,2,4-triazol-1-yl)-2-methylpropan-2-ol, isomer 2], in test [1], the “pIC50 Aβ42 PCN assay” value was found to be 7.7. In addition, the “pIC50 Aβ42 HEK assay” value in test [2] (HEK cell line stably expressing APPswe) is on record as 7.8.

For `COc1cc(Nc2nc(N3CCC3c3ccccc3)n(CC(C)(C)O)n2)ccc1-n1cnc(C)c1` (single isomer, unassigned; isomer 1) [Example 6, 1-(3-(3-Methoxy-4-(4-methyl-1H-imidazol-1-yl)phenylamino)-5-(2-phenylazetidin-1-yl)-1H-1,2,4-triazol-1-yl)-2-methylpropan-2-ol, isomer 1], the “pIC50 Aβ42 PCN assay” value in test [1] turned out to be 7.2. Moreover, in test [2], the IC50 is 25.1 nM.

As to `COc1cc(Nc2nc(N3CCC34CCCC4)n(CC(C)(C)O)n2)ccc1-n1cnc(C)c1` [Example 9, 1-(3-(3-Methoxy-4-(4-methyl-1H-imidazol-1-yl)phenylamino)-5-(1-azaspiro[3.4]octan-1-yl)-1H-1,2,4-triazol-1-yl)-2-methylpropan-2-ol], the IC50 in test [1] and in test [2] was 31.6 nM throughout.

Regarding `COc1cc(Nc2nc(N3CC(c4ccccc4)C3)n(C)n2)ccc1-n1cnc(C)c1` [Example 3, N-(3-Methoxy-4-(4-methyl-1H-imidazol-1-yl)phenyl)-1-methyl-5-(3-phenylazetidin-1-yl)-1H-1,2,4-triazol-3-amine], the figures for the IC50 in test [1] and in test [2] were 79.4 nM and 39.8 nM, respectively.

For the compound `COc1cc(Nc2nc(N3CCC3c3ccccc3)n(CC(C)(C)O)n2)ccc1-n1cnc(C)c1` (racemic) [Example 5, 1-(3-(3-Methoxy-4-(4-methyl-1H-imidazol-1-yl)phenylamino)-5-(2-phenylazetidin-1-yl)-1H-1,2,4-triazol-1-yl)-2-methylpropan-2-ol], the values for the IC50 in test [1] and in test [2] were 31.6 nM and 25.1 nM, respectively.

In the case of `COc1cc(Nc2nc(N3CCC3c3ccccc3)n(C)n2)ccc1-n1cnc(C)c1` (stereo not drawn) [Example 4, N-(3-Methoxy-4-(4-methyl-1H-imidazol-1-yl)phenyl)-1-methyl-5-(2-phenylazetidin-1-yl)-1H-1,2,4-triazol-3-amine], the IC50 in test [1] and in test [2] was 25.1 nM in each case.
